Results taken from ChEMBL document CHEMBL1201862, “PubChem BioAssay data set” (2004).
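The compound was tested at five concentrations on cells cultured in 96-well plates, with a 48-hour exposure period. Abbreviation: GI50, concentration required for 50% inhibition of growth.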 Active and inactive are the calls of the source. No stated cut-off is given here; in the data, active = GI50 up to about 1.1 µM and inactive = higher. Where a SMILES comes first, the peptide text is derived from it. The star is where a group is joined. Boc = CC(C)(C)OC(=O)*

Columns and labels:
Assay in all cases: inhibition of tumour cell growth, NCI panel, 48 h
SF-268 = system: SF-268
OVCAR-3 = system: OVCAR-3
SF-539 = system: SF-539
Malme-3M = system: Malme-3M
COLO 205 = system: COLO 205
SF-295 = system: SF-295
RPMI-8226 = system: RPMI-8226
SNB-75 = system: SNB-75
EKVX = system: EKVX
M14 = system: M14
UACC-257 = system: UACC-257
UO-31 = system: UO-31
NCI-H23 = system: NCI-H23
SW-620 = system: SW-620
NCI-H522 = system: NCI-H522
KM-20L2 = system: KM-20L2
SK-OV-3 = system: SK-OV-3
A498 = system: A498
HOP-18 = system: HOP-18
DMS-273 = system: DMS-273

Row | Compound | GI50 (SF-268) | GI50 (OVCAR-3) | GI50 (SF-539) | GI50 (Malme-3M) | GI50 (COLO 205) | GI50 (SF-295) | GI50 (RPMI-8226) | GI50 (SNB-75) | GI50 (EKVX) | GI50 (M14) | GI50 (UACC-257) | GI50 (UO-31) | GI50 (NCI-H23) | GI50 (SW-620) | GI50 (NCI-H522) | GI50 (KM-20L2) | GI50 (SK-OV-3) | GI50 (A498) | GI50 (HOP-18) | GI50 (DMS-273)
1 | O=C(NN1C(=O)C(Cl)C1c1ccccc1O)c1ccccc1O (stereo not drawn) | 44.1 µM (inactive) | 3.13 µM (inactive) | 16.3 µM (inactive) | 13.9 µM (inactive) | 21.4 µM (inactive) | 26.8 µM (inactive) | 12.5 µM (inactive) | 49.9 µM (inactive) | 29.4 µM (inactive) | 18.3 µM (inactive) | 22.2 µM (inactive) | 21.3 µM (inactive) | 42.5 µM (inactive) | 32.7 µM (inactive) | 29 µM (inactive) | 4.51 µM (inactive) | 16.1 µM (inactive) | – | – | –
2 | Cc1ccc(N2C(=O)/C(=C3\SC(C(N)=O)=C(N)N3c3ccccc3)SC2=S)cc1 | 15.7 µM (inactive) | 90.2 µM (inactive) | 22.8 µM (inactive) | – | > 100 µM (inactive) | 24.9 µM (inactive) | 72.4 µM (inactive) | 7.91 µM (inactive) | – | – | > 100 µM (inactive) | > 100 µM (inactive) | 51.1 µM (inactive) | > 100 µM (inactive) | 27.7 µM (inactive) | – | 28.2 µM (inactive) | 4.73 µM (inactive) | 37.7 µM (inactive) | –
3 | c1ccc2c3c(ccc2c1)-c1[nH]ncc1CCO3 | 37.8 µM (inactive) | 27.7 µM (inactive) | 25 µM (inactive) | 45.7 µM (inactive) | 37.2 µM (inactive) | 28.4 µM (inactive) | – | 27.5 µM (inactive) | 13.6 µM (inactive) | – | 27.7 µM (inactive) | 25.6 µM (inactive) | 25.2 µM (inactive) | 37.8 µM (inactive) | 21.8 µM (inactive) | 34.5 µM (inactive) | 35.8 µM (inactive) | > 56 µM (inactive) | 61.4 µM (inactive) | 40.5 µM (inactive)
4 | Cc1ccc(S(=O)(=O)OC[C@@H]2CO2)cc1 | – | > 100 µM (inactive) | > 100 µM (inactive) | > 100 µM (inactive) | > 100 µM (inactive) | – | – | > 100 µM (inactive) | > 100 µM (inactive) | > 100 µM (inactive) | > 100 µM (inactive) | > 100 µM (inactive) | > 100 µM (inactive) | > 100 µM (inactive) | – | > 100 µM (inactive) | – | > 100 µM (inactive) | > 100 µM (inactive) | > 100 µM (inactive)
5 | O=C(c1ccccc1)c1nc2ccc(Cl)cc2c2c1CCCO2 | > 100 µM (inactive) | > 100 µM (inactive) | – | > 100 µM (inactive) | > 100 µM (inactive) | 50 µM (inactive) | > 100 µM (inactive) | – | > 100 µM (inactive) | > 100 µM (inactive) | – | > 100 µM (inactive) | 72.8 µM (inactive) | > 100 µM (inactive) | > 100 µM (inactive) | > 100 µM (inactive) | – | – | > 100 µM (inactive) | > 100 µM (inactive)
6 | O=C1C(Br)=CC2([N+](=O)[O-])CCNC3=C(C4=NCCc5c[nH]c(c54)C3=O)C2=C1Br (stereo not drawn) | 2.26 µM (inactive) | 0.0546 µM (active) | 2.11 µM (inactive) | – | 0.0178 µM (active) | 1.91 µM (inactive) | 0.159 µM (active) | 8.39 µM (inactive) | 2.33 µM (inactive) | – | 0.279 µM (active) | 9.59 µM (inactive) | 1.39 µM (inactive) | 0.0497 µM (active) | 0.1 µM (active) | 0.414 µM (active) | 3.13 µM (inactive) | 5.06 µM (inactive) | 14.4 µM (inactive) | 1.72 µM (inactive)
7 | CCCN(CCC)c1cc2c(cc1F)c(=O)c(C(=O)O)cn2-c1ccc(N2CCN(C)CC2)cn1 | 15.6 µM (inactive) | 15.7 µM (inactive) | 17.1 µM (inactive) | 13.3 µM (inactive) | 13.4 µM (inactive) | 17.8 µM (inactive) | 17.7 µM (inactive) | 14.7 µM (inactive) | 16.7 µM (inactive) | 16.9 µM (inactive) | 20.2 µM (inactive) | 13.3 µM (inactive) | 16.7 µM (inactive) | 16.2 µM (inactive) | 11.5 µM (inactive) | – | 14.3 µM (inactive) | 19.8 µM (inactive) | – | –
8 | CN1NC(c2ccc(Cl)cc2)=C(C#N)C(=O)CC1c1ccccc1 (stereo not drawn) | > 100 µM (inactive) | – | – | – | > 100 µM (inactive) | > 100 µM (inactive) | > 100 µM (inactive) | > 100 µM (inactive) | – | – | > 100 µM (inactive) | – | > 100 µM (inactive) | > 100 µM (inactive) | 79.4 µM (inactive) | > 100 µM (inactive) | > 100 µM (inactive) | > 100 µM (inactive) | 29.9 µM (inactive) | > 100 µM (inactive)
9 | O=C(Cc1nc2ccc(C(=O)c3ccccc3)cc2nc1O)C(=O)Nc1nc2ccccc2[nH]1 | 67 µM (inactive) | 62.5 µM (inactive) | 71 µM (inactive) | 87.9 µM (inactive) | 36.8 µM (inactive) | 28.4 µM (inactive) | – | 31.7 µM (inactive) | > 100 µM (inactive) | 82.6 µM (inactive) | 84.5 µM (inactive) | 60.3 µM (inactive) | 44.6 µM (inactive) | 42.9 µM (inactive) | 30 µM (inactive) | 63.5 µM (inactive) | > 100 µM (inactive) | – | 77.1 µM (inactive) | 20.9 µM (inactive)
10 | NC(=O)CCC(NCc1c2ccccc2[n+]([O-])c2ccccc12)C(=O)O (stereo not drawn) | 59.2 µM (inactive) | > 100 µM (inactive) | – | 81.8 µM (inactive) | > 100 µM (inactive) | > 100 µM (inactive) | 36.1 µM (inactive) | 49.7 µM (inactive) | > 100 µM (inactive) | > 100 µM (inactive) | > 100 µM (inactive) | 59 µM (inactive) | 63 µM (inactive) | 52.5 µM (inactive) | 70 µM (inactive) | 52.6 µM (inactive) | > 100 µM (inactive) | > 100 µM (inactive) | 33.5 µM (inactive) | 56.8 µM (inactive)
11 | CN1CCC(C(O)(c2ccccc2)c2ccc(Br)cc2)CC1 (stereo not drawn) | 31.5 µM (inactive) | 39.4 µM (inactive) | 17.6 µM (inactive) | 14.5 µM (inactive) | 15.3 µM (inactive) | 17.9 µM (inactive) | 17.3 µM (inactive) | 16.6 µM (inactive) | 28.8 µM (inactive) | 15.3 µM (inactive) | 15.4 µM (inactive) | 12.5 µM (inactive) | 46.9 µM (inactive) | 21.4 µM (inactive) | 15.5 µM (inactive) | – | 32.7 µM (inactive) | – | – | –
12 | COc1cc(O)c2c(=O)cc(C3(O)C=CC(=O)C=C3)oc2c1 | 0.428 µM (active) | – | < 0.01 µM (active) | < 0.01 µM (active) | 0.463 µM (active) | 0.631 µM (active) | – | 1.22 µM (inactive) | 1.36 µM (inactive) | 0.542 µM (active) | 0.489 µM (active) | 0.0733 µM (active) | 0.664 µM (active) | < 0.0417 µM (active) | < 0.0361 µM (active) | – | 2.37 µM (inactive) | 4.05 µM (inactive) | – | –
13 | c1ccc(-c2nnc(-c3nsc4ccccc34)o2)cc1 | > 100 µM (inactive) | > 100 µM (inactive) | > 100 µM (inactive) | – | > 100 µM (inactive) | – | > 100 µM (inactive) | 2.56 µM (inactive) | 41.4 µM (inactive) | > 100 µM (inactive) | > 100 µM (inactive) | 19.5 µM (inactive) | > 100 µM (inactive) | > 100 µM (inactive) | – | > 100 µM (inactive) | – | – | – | > 100 µM (inactive)
14 | NC(C/C=C/P(=O)(O)O)C(=O)O (stereo not drawn) | 58.1 µM (inactive) | > 100 µM (inactive) | > 100 µM (inactive) | – | > 100 µM (inactive) | > 100 µM (inactive) | – | 14.1 µM (inactive) | > 100 µM (inactive) | > 100 µM (inactive) | > 100 µM (inactive) | > 100 µM (inactive) | > 100 µM (inactive) | > 100 µM (inactive) | > 100 µM (inactive) | – | > 100 µM (inactive) | – | – | –
15 | COc1ccc(-c2cc(O)c3ccc(C)nc3n2)cc1 | > 100 µM (inactive) | – | > 100 µM (inactive) | > 100 µM (inactive) | > 100 µM (inactive) | – | 55.7 µM (inactive) | – | > 100 µM (inactive) | > 100 µM (inactive) | > 100 µM (inactive) | > 100 µM (inactive) | > 100 µM (inactive) | > 100 µM (inactive) | > 100 µM (inactive) | – | > 100 µM (inactive) | 65.6 µM (inactive) | – | –
16 | Nc1nc(O)c2ncn(C3C=CC(CO)O3)c2n1 (stereo not drawn) | – | > 100 µM (inactive) | – | > 100 µM (inactive) | > 100 µM (inactive) | > 100 µM (inactive) | > 100 µM (inactive) | > 100 µM (inactive) | – | > 100 µM (inactive) | > 100 µM (inactive) | > 100 µM (inactive) | > 100 µM (inactive) | > 100 µM (inactive) | – | – | – | > 100 µM (inactive) | – | –
17 | CC(C)(C)OC(=O)NC(Cc1ccccc1)C(=O)N1CCCC1C(N)=O (stereo not drawn) (Boc-Phe-Pro-NH2; configuration not given here) | > 100 µM (inactive) | > 100 µM (inactive) | – | > 100 µM (inactive) | > 100 µM (inactive) | > 100 µM (inactive) | > 100 µM (inactive) | – | > 100 µM (inactive) | > 100 µM (inactive) | > 100 µM (inactive) | – | – | > 100 µM (inactive) | > 100 µM (inactive) | – | > 100 µM (inactive) | – | – | –
